Experimental data: publication PMC7531004, “Discovery of gramicidin A analogues with altered activities by multidimensional screening of a one-bead-one-compound library” (Nature Communications, 2020)
Where a SMILES comes first, the peptide text is derived from it. [ ]: non-standard residue; d: D form. The star is where a group is joined. NHCH2CH2OH = OCCN*; For = O=C*

What was measured:
[1] = H+/Na+ transport assay of bead-derived peptides (one-point); format: biochemical; set-up: key: relative activity; mean of two control wells = 1.00; settings: bead-derived peptide solution, EYPC/EYPG LUVs;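 further: relative to parent gramicidin A activity set to 1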
How it was run: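 Values are normalized fluorescence, with Triton X-100 defining 100% and untreated LUVs 0%, and the two control wells averaging 1.00. Vesicles carried 1.0 mM pyranine and included egg yolk phosphatidylglycerol. Peptides were incubated with them 30 min at room temperature.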

[2] = test system: Streptococcus pyogenes SSI-9; test: Antibacterial activity assay of bead-derived peptides (three concentrations); format: cell-based; set-up: key: +++: inhibition by the 640-fold diluted peptide solution; ++: inhibition by the 160-fold diluted solution; +: inhibition by the 40-fold diluted solution; -: no inhibition; settings: S. pyogenes, bead-derived peptide solution, three concentrations
How it was run: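 Growth inhibition scored visually as precipitated bacteria after 37 °C, 18 h incubation. Streptococcus pyogenes SSI-9 inoculum of 2 × 10^5 CFU in Ca2+/Mg2+-adjusted Mueller Hinton broth plus 5% laked horse blood; peptides tested at three levels: stock, 4-fold and 16-fold DMSO dilutions.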

[3] = test system: P388 mouse leukemia cells; settings: 92 h
How it was run: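 Peptide stocks diluted 250× in growth medium; P388 cells 1 × 10^4 cells/mL final; 37 °C, 5% CO2, 92 h. WST-1 + 1-methoxy PMS, 4 h, A415. Output: % viability.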

| Compound | H+/Na+ transport activity normalized against the value of 1 (1.00) [1] | antibacterial activity [2] | cell viability/% [3] |
| --- | --- | --- | --- |
| CC(C)[C@H](NC=O)C(=O)NCC(=O)N[C@@H](C)C(=O)N[C@@H](C(=O)N[C@@H](C)C(=O)N[C@@H](C(=O)N[C@H](C(=O)N[C@@H](C(=O)N[C@@H](Cc1c[nH]c2ccccc12)C(=O)N[C@@H](C(=O)N[C@@H](Cc1c[nH]c2ccccc12)C(=O)N[C@@H](C(=O)N[C@@H](Cc1c[nH]c2ccccc12)C(=O)N[C@@H](C(=O)N[C@@H](Cc1c[nH]c2ccccc12)C(=O)NCCO)C(C)C)C(C)C)C(C)C)C(C)C)C(C)C)C(C)C)C(C)C [compound 10276] (For-VGA[dV]A[dV]V[dV]W[dV]W[dV]W[dV]W-NHCH2CH2OH) | 1.04 | + | 100.0% |
| CC(C)C[C@@H](NC(=O)[C@H](C)NC(=O)CNC(=O)[C@@H](NC=O)C(C)C)C(=O)N[C@@H](C)C(=O)N[C@H](CC(C)C)C(=O)N[C@H](C(=O)N[C@@H](C(=O)N[C@@H](Cc1c[nH]c2ccccc12)C(=O)N[C@@H](C(=O)N[C@@H](Cc1c[nH]c2ccccc12)C(=O)N[C@@H](C(=O)N[C@@H](Cc1c[nH]c2ccccc12)C(=O)N[C@@H](C(=O)N[C@@H](Cc1c[nH]c2ccccc12)C(=O)NCCO)C(C)C)C(C)C)C(C)C)C(C)C)C(C)C [compound 10536] (For-VGA[dL]A[dL]V[dV]W[dV]W[dV]W[dV]W-NHCH2CH2OH) | 1.21 | + | 100.0% |
| CNC(=O)C[C@@H](NC(=O)[C@H](Cc1c[nH]c2ccccc12)NC(=O)[C@@H](CC(C)C)NC(=O)[C@@H](NC(=O)[C@@H](CC(C)C)NC(=O)[C@H](C)NC(=O)[C@H](NC(=O)[C@H](C)NC(=O)CNC(=O)[C@@H](NC=O)C(C)C)C(C)C)C(C)C)C(=O)N[C@@H](Cc1c[nH]c2ccccc12)C(=O)N[C@@H](C(=O)N[C@@H](Cc1c[nH]c2ccccc12)C(=O)N[C@@H](C(=O)N[C@@H](Cc1c[nH]c2ccccc12)C(=O)NCCO)C(C)C)C(C)C [compound 5380] (For-VGA[dV]A[dL]V[dL]W[dD](NHMe)W[dV]W[dV]W-NHCH2CH2OH) | 1.05 | - | 100.0% |
| CC(C)C[C@@H](NC(=O)[C@H](C)NC(=O)CNC(=O)[C@@H](NC=O)C(C)C)C(=O)N[C@@H](C)C(=O)N[C@H](CC(C)C)C(=O)N[C@H](C(=O)N[C@H](CC(C)C)C(=O)N[C@@H](Cc1c[nH]c2ccccc12)C(=O)N[C@H](CC(C)C)C(=O)N[C@@H](Cc1c[nH]c2ccccc12)C(=O)N[C@H](CC(C)C)C(=O)N[C@@H](Cc1c[nH]c2ccccc12)C(=O)N[C@@H](C(=O)N[C@@H](Cc1c[nH]c2ccccc12)C(=O)NCCO)C(C)C)C(C)C [compound 6639] (For-VGA[dL]A[dL]V[dL]W[dL]W[dL]W[dV]W-NHCH2CH2OH) | 1.01 | + | 0.0% |
| CC(C)C[C@@H](NC(=O)[C@H](C)NC(=O)[C@H](NC(=O)[C@H](C)NC(=O)CNC(=O)[C@@H](NC=O)C(C)C)C(C)C)C(=O)N[C@H](C(=O)N[C@@H](C(=O)N[C@@H](Cc1c[nH]c2ccccc12)C(=O)N[C@@H](C(=O)N[C@@H](Cc1c[nH]c2ccccc12)C(=O)N[C@@H](C(=O)N[C@@H](Cc1c[nH]c2ccccc12)C(=O)N[C@@H](C(=O)N[C@@H](Cc1c[nH]c2ccccc12)C(=O)NCCO)C(C)C)C(C)C)C(C)C)[C@H](C)O)C(C)C [compound 12283] (For-VGA[dV]A[dL]V[dT]W[dV]W[dV]W[dV]W-NHCH2CH2OH) | 1.08 | - | 100.0% |
| CC(C)C[C@@H](NC(=O)[C@H](C)NC(=O)CNC(=O)[C@@H](NC=O)C(C)C)C(=O)N[C@@H](C)C(=O)N[C@H](CC(C)C)C(=O)N[C@H](C(=O)N[C@@H](C(=O)N[C@@H](Cc1c[nH]c2ccccc12)C(=O)N[C@H](CC(C)C)C(=O)N[C@@H](Cc1c[nH]c2ccccc12)C(=O)N[C@@H](C(=O)N[C@@H](Cc1c[nH]c2ccccc12)C(=O)N[C@H](CC(C)C)C(=O)N[C@@H](Cc1c[nH]c2ccccc12)C(=O)NCCO)[C@H](C)O)[C@H](C)O)C(C)C [compound 3780] (For-VGA[dL]A[dL]V[dT]W[dL]W[dT]W[dL]W-NHCH2CH2OH) | 1.16 | - | 100.0% |
| CC(C)C[C@@H](NC(=O)[C@H](C)NC(=O)CNC(=O)[C@@H](NC=O)C(C)C)C(=O)N[C@@H](C)C(=O)N[C@H](CC(C)C)C(=O)N[C@H](C(=O)N[C@H](CC(C)C)C(=O)N[C@@H](Cc1c[nH]c2ccccc12)C(=O)N[C@@H](C(=O)N[C@@H](Cc1c[nH]c2ccccc12)C(=O)N[C@@H](C(=O)N[C@@H](Cc1c[nH]c2ccccc12)C(=O)N[C@H](CC(C)C)C(=O)N[C@@H](Cc1c[nH]c2ccccc12)C(=O)NCCO)C(C)C)[C@H](C)O)C(C)C [compound 10442] (For-VGA[dL]A[dL]V[dL]W[dT]W[dV]W[dL]W-NHCH2CH2OH) | 1.15 | - | 100.0% |
| CNC(=O)C[C@@H](NC(=O)[C@H](Cc1c[nH]c2ccccc12)NC(=O)[C@@H](CC(C)C)NC(=O)[C@H](Cc1c[nH]c2ccccc12)NC(=O)[C@H](NC(=O)[C@H](Cc1c[nH]c2ccccc12)NC(=O)[C@@H](CC(C)C)NC(=O)[C@@H](NC(=O)[C@H](NC(=O)[C@H](C)NC(=O)[C@@H](CC(C)C)NC(=O)[C@H](C)NC(=O)CNC(=O)[C@@H](NC=O)C(C)C)C(C)C)C(C)C)C(C)C)C(=O)N[C@@H](Cc1c[nH]c2ccccc12)C(=O)NCCO [compound 5302] (For-VGA[dL]A[dV]V[dL]W[dV]W[dL]W[dD](NHMe)W-NHCH2CH2OH) | 1.37 | - | 100.0% |
| CNC(=O)C[C@@H](NC(=O)[C@H](Cc1c[nH]c2ccccc12)NC(=O)[C@@H](CC(C)C)NC(=O)[C@H](Cc1c[nH]c2ccccc12)NC(=O)[C@@H](CC(C)C)NC(=O)[C@H](Cc1c[nH]c2ccccc12)NC(=O)[C@H](NC(=O)[C@@H](NC(=O)[C@H](NC(=O)[C@H](C)NC(=O)[C@@H](CC(C)C)NC(=O)[C@H](C)NC(=O)CNC(=O)[C@@H](NC=O)C(C)C)C(C)C)C(C)C)C(C)C)C(=O)N[C@@H](Cc1c[nH]c2ccccc12)C(=O)NCCO [compound 11422] (For-VGA[dL]A[dV]V[dV]W[dL]W[dL]W[dD](NHMe)W-NHCH2CH2OH) | 1.04 | + | 47.4% |
| CC(C)C[C@@H](NC(=O)[C@H](C)NC(=O)CNC(=O)[C@@H](NC=O)C(C)C)C(=O)N[C@@H](C)C(=O)N[C@@H](C(=O)N[C@H](C(=O)N[C@@H](C(=O)N[C@@H](Cc1c[nH]c2ccccc12)C(=O)N[C@@H](C(=O)N[C@@H](Cc1c[nH]c2ccccc12)C(=O)N[C@@H](C(=O)N[C@@H](Cc1c[nH]c2ccccc12)C(=O)N[C@@H](C(=O)N[C@@H](Cc1c[nH]c2ccccc12)C(=O)NCCO)C(C)C)C(C)C)C(C)C)C(C)C)C(C)C)C(C)C [compound 9610] (For-VGA[dL]A[dV]V[dV]W[dV]W[dV]W[dV]W-NHCH2CH2OH) | 1.14 | + | 100.0% |
| CC(C)C[C@@H](NC(=O)[C@H](C)NC(=O)[C@H](NC(=O)[C@H](C)NC(=O)CNC(=O)[C@@H](NC=O)C(C)C)C(C)C)C(=O)N[C@H](C(=O)N[C@H](CC(C)C)C(=O)N[C@@H](Cc1c[nH]c2ccccc12)C(=O)N[C@@H](C(=O)N[C@@H](Cc1c[nH]c2ccccc12)C(=O)N[C@@H](C(=O)N[C@@H](Cc1c[nH]c2ccccc12)C(=O)N[C@@H](C(=O)N[C@@H](Cc1c[nH]c2ccccc12)C(=O)NCCO)C(C)C)C(C)C)C(C)C)C(C)C [compound 2832] (For-VGA[dV]A[dL]V[dL]W[dV]W[dV]W[dV]W-NHCH2CH2OH) | 1.23 | + | 17.7% |
| CC(C)C[C@@H](NC(=O)[C@H](C)NC(=O)CNC(=O)[C@@H](NC=O)C(C)C)C(=O)N[C@@H](C)C(=O)N[C@H](CC(C)C)C(=O)N[C@H](C(=O)N[C@H](CC(C)C)C(=O)N[C@@H](Cc1c[nH]c2ccccc12)C(=O)N[C@@H](C(=O)N[C@@H](Cc1c[nH]c2ccccc12)C(=O)N[C@@H](C(=O)N[C@@H](Cc1c[nH]c2ccccc12)C(=O)N[C@@H](C(=O)N[C@@H](Cc1c[nH]c2ccccc12)C(=O)NCCO)C(C)C)C(C)C)C(C)C)C(C)C [compound 5611] (For-VGA[dL]A[dL]V[dL]W[dV]W[dV]W[dV]W-NHCH2CH2OH) | 1.17 | + | 3.9% |
| CC(C)C[C@@H](NC(=O)[C@H](C)NC(=O)[C@H](NC(=O)[C@H](C)NC(=O)CNC(=O)[C@@H](NC=O)C(C)C)C(C)C)C(=O)N[C@H](C(=O)N[C@H](CC(C)C)C(=O)N[C@@H](Cc1c[nH]c2ccccc12)C(=O)N[C@@H](C(=O)N[C@@H](Cc1c[nH]c2ccccc12)C(=O)N[C@H](CC(C)C)C(=O)N[C@@H](Cc1c[nH]c2ccccc12)C(=O)N[C@H](CC(C)C)C(=O)N[C@@H](Cc1c[nH]c2ccccc12)C(=O)NCCO)C(C)C)C(C)C [compound 11439] (For-VGA[dV]A[dL]V[dL]W[dV]W[dL]W[dL]W-NHCH2CH2OH) | 1.18 | - | 8.1% |
